Measurements published in patent US11440880B2, “Thalidomide analogs and methods of use” (The USA, as represented by the Secretary, Department of …, priority 2015, dated 2022).

Tests used:
Assay type in all cases: cell-based, mouse
Set-up in all cases: key: NS=not significant; a “+” sign=anti-inflammatory or increased cell numbers; a “−” sign=cell toxicity or pro-inflammatory
TNF-α protein = TNF-α protein level (ELISA) in LPS-challenged RAW 264.7 cells; settings: LPS 30 or 60 ng/mL, 24 h
Procedure: (§1) Nitrite levels in the culture media were measured by use of the Griess Reagent System (Promega, Madison, Wis.), following the manufacturer's protocol. The O.D. of unknown samples was read at 520 nm λ, compared to a sodium nitrite standard curve (1.5 μM to 100 μM) and nitrite measured media concentrations expressed as μM units. As the lowest nitrite concentration on the Griess Reagent System standard curve was 1.5 μM, this was chosen as the effective cutoff for defining measurable nitrite concentrations. TNF-α protein levels were measured by use of an ELISA specific for mouse TNF-α protein (BioLegend, San Diego, Calif.) and are expressed as a % change from their appropriate control or as pg/ml.
(§2) RAW 264.7 cells obtained from ATCC (Manassas, Va., USA) were grown in DMEM media supplemented with 10% FCS, penicillin 100 μg/ml and streptomycin 100 μg/ml, and maintained at 37° C. and 5% CO2. Cells were seeded in 24 well plates and, 24 hours later, were utilized in studies. One hour prior to the initiation of any study, the seeding media was replaced with fresh media (1 mL), and the cells were allowed to equilibrate at 37° C. and 5% CO2.
(§3) RAW 264.7 cells were challenged with LPS (Sigma, St Louis, Mo.: serotype 055:B5) from at a final concentration of 30 or 60 ng/mL. This concentration of LPS in RAW 264.7 cells induces a sub-maximal rise in both TNF-alpha and nitrite levels without a loss in cellular viability. This sub-maximal rise is useful for assessing whether the addition of an experimental drug can either lower or further raise levels of TNF-α and nitrite. Twenty four hours following the addition of LPS, conditioned media was harvested and analyzed for quantification of secreted TNF-α protein and nitrite levels. Fresh media was replaced into the wells and cell viability was then assessed.
(§4) Thalidomide and analogs were prepared in tissue culture grade DMSO (Sigma). RAW 264.7 cells were pretreated with thalidomide, analogues or vehicle one hour prior to a challenge with LPS. The effects of various concentrations of thalidomide analogues were assessed. All compounds were synthesized to a chemical purity of >99.5%, as assessed by chemical characterization by a combination of 1H NMR, 13C NMR and GC/MS analyses (Bruker AC-300 spectrometer, together with elemental analyses (Atlantic Microlab, Inc., Norcross, Ga.).

RAW 264.7 cells = experiment: Cell viability (CellTiter 96 AQueous One) of LPS-challenged RAW 264.7 cells
Procedure: The CellTiter 96® AQueous One Solution Cell Proliferation Assay (Promega, Madison, Wis.) is routinely used as an assay of cell proliferation, and was used according to the manufacturer's recommendations. Changes in cellular health status are determined by use of indirect measures related to the formation of a colored tetrazolium dye product that can be measured spectrophotometrically at 490 nm λ. […] Optical densities (expressed as O.D.s) were measured after various incubations.
as §2, §3, §4

[1] = test system: nitrite levels in the culture media; experiment: Nitrite level (Griess Reagent System) in LPS-challenged RAW 264.7 cells; settings: LPS 30 or 60 ng/mL, 24 h
Procedure: as §1, §2, §3, §4

| SMILES | TNF-α (TNF-α protein; 1 μM) | TNF-α (TNF-α protein; 10 μM) | TNF-α (TNF-α protein; 30 μM) | Viability (RAW 264.7 cells; 1 μM) | Viability (RAW 264.7 cells; 10 μM) | Viability (RAW 264.7 cells; 30 μM) | Nitrite ([1]; 1 μM) | Nitrite ([1]; 10 μM) | Nitrite ([1]; 30 μM) | TNF-α (TNF-α protein; 60 μM) | Viability (RAW 264.7 cells; 60 μM) | Nitrite ([1]; 60 μM) | TNF-α (TNF-α protein; 3 μM) | Viability (RAW 264.7 cells; 3 μM) |
| --- | --- | --- | --- | --- | --- | --- | --- | --- | --- | --- | --- | --- | --- | --- |
| Nc1cccc2c1CN([C@H]1C[C@H]3CC[C@@H]1C3)C2=O [Compound 102] | NS | NS | NS | NS | NS | NS | NS | NS | NS |  |  |  |  |  |
| C[C@H]1[C@H](N2Cc3c(cccc3[N+](=O)[O-])C2=O)C[C@@H]2C[C@H]1C2(C)C [Compound 90] | + | + | + | NS | NS | NS | + | + | + |  |  |  |  |  |
| CC1(C)[C@@H]2CC[C@H](CN3Cc4c(N)cccc4C3=O)[C@H]1C2 [Compound 104] | NS | NS | NS | NS | NS | NS | − | − | − |  |  |  |  |  |
| C[C@H]1[C@H](N2C(=O)C3CC=CCC3C2=O)C[C@@H]2C[C@H]1C2(C)C (stereo partly drawn) [Compound 118] |  | + | + |  | − | − |  | + | + | + | − | + |  |  |
| C[C@@H]1[C@@H](N2Cc3c(cccc3[N+](=O)[O-])C2=O)C[C@H]2C[C@@H]1C2(C)C [Compound 92] | NS | + | + | NS | − | − | + | + | + |  |  |  |  |  |
| C[C@H]1[C@H](N2C(=O)C3C4C=CC(C4)C3C2=O)C[C@@H]2C[C@H]1C2(C)C (stereo partly drawn) [Compound 119] |  | + | + |  | − | − |  | + | + | + | − | + |  |  |
| O=C1c2cccc([N+](=O)[O-])c2CN1[C@H]1C[C@H]2CC[C@@H]1C2 [Compound 101] | NS | NS | + | − | − | NS | + | + | + |  |  |  |  |  |
| Nc1cccc2c1CN(C13CC4CC(CC(O)(C4)C1)C3)C2=O [Compound 88] | NS | NS | NS | NS | NS | NS | NS | NS | NS |  |  |  |  |  |
| c1ccc2c(c1)CN=C2C1=NCc2ccccc21 [Compound 106] |  | NS | NS |  | + | + |  |  |  |  |  |  | NS | + |
| Nc1ccc2c(c1)C(=O)N(C1=CNC(=O)CC1)C2 [Compound 43] |  | NS | NS |  | NS | NS |  |  |  |  |  |  | NS | NS |
| O=C1CCCC(=O)N1CN1C(=O)CCC(N2Cc3ccccc3C2=O)C1=O (stereo not drawn) [Compound 48] | + | + | + | NS | NS | NS |  |  |  |  |  |  |  |  |
| Nc1ccc2c(c1)C(=O)N(C1CC=CNC1=O)C2 (stereo not drawn) [Compound 44] |  | NS | + |  | NS | NS |  |  |  |  |  |  | NS | NS |
